Source: patent US20260000710A1, “Novel Treatments for Cardiovascular Related Disease” (priority 2022, published 2026)

System: AIM+ and AIM− CD4+ T cells from peptide-expanded PBMCs
Assay: TCRβ CDR3 sequencing (immunoSEQ) of sorted AIM+ and AIM− CD4+ T cells;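 note: genomic DNA from sorted cells as template, amplification bias-controlled two-step multiplex PCR, APOB6 pool at 10 µg/ml per peptide, CD40 blocking antibody added before restimulation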
Format: cell-based, human
Conditions: for Log10 Odds Ratio: AIM+ vs AIM−; for No. of clone-specific productive templates, AIM+ CD4+ T (Total 25796) / No. of clone-specific productive templates, AIM− CD4+ T (Total 25928) / No. of clone-specific productive templates, AIM+ CD4+ T (Total 16700) / No. of clone-specific productive templates, AIM− CD4+ T (Total 21770) / No. of clone-specific productive templates, AIM+ CD4+ T (Total 31354) / No. of clone-specific productive templates, AIM− CD4+ T (Total 48987) / No. of clone-specific productive templates, AIM+ CD4+ T (Total 34927) / No. of clone-specific productive templates, AIM− CD4+ T (Total 45364) / No. of clone-specific productive templates, AIM+ CD4+ T (Total 18591) / No. of clone-specific productive templates, AIM− CD4+ T (Total 7206) / No. of clone-specific productive templates, AIM+ CD4+ T (Total 21697) / No. of clone-specific productive templates, AIM− CD4+ T (Total 49956): PBMCs expanded 14 days and restimulated 24 h with APOB6
Procedure: To examine the clonotypic identities of autoreactive CD4^+ T cells, the hypervariable TCRβ DR3 region was sequenced using a DNA-based sequencing technique^42 (Adaptive Biotechnologies), which have been used to profile clonal populations of other self-antigen specific T cells^43. PBMCs from six HLA-typed donors (demographics and HLA-II alleles in Tables 5, 6) were expanded (14-days) and restimulated (24 h) with the APOB6 pool. To isolate viable responder and non-responder CD4^+ T cells from the same pool of stimulated PBMCs (schematic in FIG. 15A, gating strategy in FIG. 151B), the inventors used the AIM assay protocol (FIGS. 2A to 2D).
As a second control, unexpanded PBMCs (day 0 samples), sorted into naïve, central memory (TCM) and effector memory (TEM) CD4^+ T cells, were used (gating strategy in FIG. 15C). This allowed tracing the APOB6-specific AIM^+ T cell clones in naïve and memory T cell lineages. Genomic DNA, isolated from sorted AIM^− and AIM^+ Day 14 samples and naïve, TCM and TEM Day 0 samples from six donors, was used as the starting material for TCRVβ sequencing (schematic in FIG. 15A) using an optimized two-step, amplification bias-controlled multiplex-PCR-based approach^42,44 (immunoSEQ Human TCRB Assay, Adaptive Biotechnologies).
For isolation of APOB epitope-specific CD4^+ T cells, PBMCs were expanded with the APOB6pool (10 μg/ml per peptide). On Day 14, cultured cells were washed and re-stimulated with APOB6 (10 μg/ml) for 24 h (AIM assay protocol). 1 μg/ml of CD40 blocking antibody was added 15 min before stimulation. At the end of the stimulation period, cells were washed with FACS buffer (PBS w/o Ca/Mg, 2% FCS). Day 14 (APOB6 expanded and restimulated) and Day 0 (ex vivo samples with no in vitro stimulation) PBMC samples from six donors were resuspended in a staining master mix containing anti-human Fc-Block (Biolegend), fixable viability dye and antibodies against T cell and non-T cell (Dump) surface markers, activation markers and memory markers (antibody details in Table 4). Viability dye was used at 1:1000 dilution, antibodies were used at a final dilution of 1:100 (activation markers) and 1:200 (other extracellular markers). […] Gates were set based on unstimulated and PHA-L stimulated negative and positive controls, respectively. Antigen-specific AIM^+ and non-specific control AIM^− CD4^+ T cells from Day 14 samples and naïve (CD45RA^+CCR7^+), central memory (CD45RA^−CCR7^+, TCM) and effector memory (CD45RA^−CCR7^−, TEM) CD4^+ T cells from Day 0 PBMCs were sorted into HEPES-containing buffer (PBS with 2% FBS and 0.025 M HEPES) using BD FACSAria flow cytometry sorters. Acquired data was analyzed with FlowJo software.
Genomic DNA was extracted from sorted cells using QIAamp DNA Micro Kit (QIAGEN) and sent to Adaptive Biotechnologies for survey-level TCRβ sequencing (depth ˜60,000 reads) using their established immunoSEQ platform^7. Briefly, highly variable CDR3 regions on somatically rearranged human TCRβ chains were amplified with a two-step multiplex PCR approach using optimized set of primers that target the VDJ region spanning each unique CDR3B. A synthetic repertoire containing all possible V/J templates is used as a built-in control to quantify and correct PCR amplification biases. Processing of raw Illumina sequence reads, filtering, demultiplexing, clustering and mapping of CDR3 sequences and annotation of VDJ genes using IMGT database sequences were performed at Adaptive Biotechnologies and made available for download and analysis.

Substance: CASSPRGAVNTEAFF: TCRβ CDR3 clone, TCRBV07-09+TCRBJ01-01, Donor 4
- Log10 Odds Ratio (Donor 4): 0.88
- No. of clone-specific productive templates, AIM+ CD4+ T (Total 25796) (Donor 4): 950
- No. of clone-specific productive templates, AIM− CD4+ T (Total 25928) (Donor 4): 130

Substance: CASSQEVGGDHGYTF: TCRβ CDR3 clone, TCRBV04-03+TCRBJ01-02, Donor 3
- Log10 Odds Ratio (Donor 3): 2.41
- No. of clone-specific productive templates, AIM+ CD4+ T (Total 16700) (Donor 3): 759
- No. of clone-specific productive templates, AIM− CD4+ T (Total 21770) (Donor 3): 4

Substance: CASSQTALYSGNTIYF: TCRβ CDR3 clone, TCRBV19-01+TCRBJ01-03, Donor 5
- Log10 Odds Ratio (Donor 5): 12.08
- No. of clone-specific productive templates, AIM+ CD4+ T (Total 31354) (Donor 5): 777
- No. of clone-specific productive templates, AIM− CD4+ T (Total 48987) (Donor 5): 0

Substance: CASSQTGQGYNEQFF: TCRβ CDR3 clone, TCRBV23-01+TCRBJ02-01, Donor 6
- Log10 Odds Ratio (Donor 6): 1.49
- No. of clone-specific productive templates, AIM+ CD4+ T (Total 34927) (Donor 6): 308
- No. of clone-specific productive templates, AIM− CD4+ T (Total 45364) (Donor 6): 13

Substance: CASSSLTPEAYGYTF: TCRβ CDR3 clone, TCRBV28-01+TCRBJ01-02, Donor 2
- Log10 Odds Ratio (Donor 2): 2.21
- No. of clone-specific productive templates, AIM+ CD4+ T (Total 18591) (Donor 2): 796
- No. of clone-specific productive templates, AIM− CD4+ T (Total 7206) (Donor 2): 2

Substance: CASSSSGSNYNEQFF: TCRβ CDR3 clone, TCRBV03-01/03-02+TCRBJ02-01, Donor 3
- Log10 Odds Ratio (Donor 3): 1.19
- No. of clone-specific productive templates, AIM+ CD4+ T (Total 16700) (Donor 3): 597
- No. of clone-specific productive templates, AIM− CD4+ T (Total 21770) (Donor 3): 52

Substance: CASSTTGLAAYNEQFF: TCRβ CDR3 clone, TCRBV19-01+TCRBJ02-01, Donor 1
- Log10 Odds Ratio (Donor 1): 1.97
- No. of clone-specific productive templates, AIM+ CD4+ T (Total 21697) (Donor 1): 519
- No. of clone-specific productive templates, AIM− CD4+ T (Total 49956) (Donor 1): 13

Substance: CASSWDRTKFGNQPQHF: TCRβ CDR3 clone, TCRBV19-01+TCRBJ01-05, Donor 2
- Log10 Odds Ratio (Donor 2): 2.02
- No. of clone-specific productive templates, AIM+ CD4+ T (Total 18591) (Donor 2): 268
- No. of clone-specific productive templates, AIM− CD4+ T (Total 7206) (Donor 2): 1

Substance: CASSYGGGPPDTQYF: TCRβ CDR3 clone, TCRBV06-06+TCRBJ02-03, Donor 5
- Log10 Odds Ratio (Donor 5): 2.34
- No. of clone-specific productive templates, AIM+ CD4+ T (Total 31354) (Donor 5): 810
- No. of clone-specific productive templates, AIM− CD4+ T (Total 48987) (Donor 5): 6

Substance: CASSYRQTNQPQHF: TCRβ CDR3 clone, TCRBV06-02/06-03+TCRBJ01-05, Donor 4
- Log10 Odds Ratio (Donor 4): 12.14
- No. of clone-specific productive templates, AIM+ CD4+ T (Total 25796) (Donor 4): 509
- No. of clone-specific productive templates, AIM− CD4+ T (Total 25928) (Donor 4): 0

Substance: CASSYSSGGGNEQFF: TCRβ CDR3 clone, TCRBV06-05+TCRBJ02-01, Donor 1
- Log10 Odds Ratio (Donor 1): 2.61
- No. of clone-specific productive templates, AIM+ CD4+ T (Total 21697) (Donor 1): 348
- No. of clone-specific productive templates, AIM− CD4+ T (Total 49956) (Donor 1): 2

Substance: CASTATESSPLHF: TCRβ CDR3 clone, TCRBV12-03/12-04+TCRBJ01-06, Donor 5
- Log10 Odds Ratio (Donor 5): 11.80
- No. of clone-specific productive templates, AIM+ CD4+ T (Total 31354) (Donor 5): 415
- No. of clone-specific productive templates, AIM− CD4+ T (Total 48987) (Donor 5): 0

Substance: CATALAGGHEQYF: TCRβ CDR3 clone, TCRBV06-05+TCRBJ02-07, Donor 5
- Log10 Odds Ratio (Donor 5): 2.60
- No. of clone-specific productive templates, AIM+ CD4+ T (Total 31354) (Donor 5): 753
- No. of clone-specific productive templates, AIM− CD4+ T (Total 48987) (Donor 5): 3

Substance: CATSDFGKEGDEKLFF: TCRβ CDR3 clone, TCRBV24-01+TCRBJ01-04, Donor 5
- Log10 Odds Ratio (Donor 5): 2.61
- No. of clone-specific productive templates, AIM+ CD4+ T (Total 31354) (Donor 5): 518
- No. of clone-specific productive templates, AIM− CD4+ T (Total 48987) (Donor 5): 2

Substance: CATSEGGRGRGPGELFF: TCRβ CDR3 clone, TCRBV24-01+TCRBJ02-02, Donor 6
- Log10 Odds Ratio (Donor 6): 2.58
- No. of clone-specific productive templates, AIM+ CD4+ T (Total 34927) (Donor 6): 292
- No. of clone-specific productive templates, AIM− CD4+ T (Total 45364) (Donor 6): 1

Substance: CATSEPGPLNQPQHF: TCRβ CDR3 clone, TCRBV24-01+TCRBJ01-05, Donor 3
- Log10 Odds Ratio (Donor 3): 1.62
- No. of clone-specific productive templates, AIM+ CD4+ T (Total 16700) (Donor 3): 348
- No. of clone-specific productive templates, AIM− CD4+ T (Total 21770) (Donor 3): 11

Substance: CATSQGVGSGANVLTF: TCRβ CDR3 clone, TCRBV15-01+TCRBJ02-06, Donor 6
- Log10 Odds Ratio (Donor 6): 2.24
- No. of clone-specific productive templates, AIM+ CD4+ T (Total 34927) (Donor 6): 649
- No. of clone-specific productive templates, AIM− CD4+ T (Total 45364) (Donor 6): 5

Substance: CAWSVGGPGANSPLHF: TCRβ CDR3 clone, TCRBV30-01+TCRBJ01-06, Donor 2
- Log10 Odds Ratio (Donor 2): 1.16
- No. of clone-specific productive templates, AIM+ CD4+ T (Total 18591) (Donor 2): 369
- No. of clone-specific productive templates, AIM− CD4+ T (Total 7206) (Donor 2): 10
